Measurements taken from patent publication US7534607B1, “Method of producing cardiomyocytes from mesenchymal stem cells” (Industrial Technology Research Institute, priority 2005, dated 2009).

How the values were obtained:
porcine mixed MSCs = assay: Cardio differentiation (myotube formation) of mixed MSCs by differentiation agents; assay type: cell-based; settings: 4 weeks of culture, 5-azacytidine 3 μM, ascorbic acid 1 mM
Experimental: Porcine bone marrow mononucleated cells were purified according to a protocol described by Haynesworth et al (Haynesworth et al., (1992) Bone 13(1), 81-8). Briefly, bone marrows from posterior iliac crest bones of three 6-8 months old Lee-Sung miniature pigs (Luh et al., (2000) Transplantation 69(10), 2019-2027) ([…]) were aspirated into syringes that contained 6,000 unit heparin. The marrow samples were diluted in a ratio of 1:1 with HBSS (Gibco) and loaded onto 1.073 g/mL Ficoll solution (Amersham) in 50 mL centrifugations tubes and were centrifuged at 2,000 rpm for 40 min at room temperature. The mononucleated cells were collected from upper and interface layers, and washed with HBSS (Gibco) twice. Subsequently, the cells were cultured in αMEM (Hyclone) medium containing 100 unit/ml penicillin, 100 μg/ml streptomycin (Gibco) and 20% fetal bovine serum (FBS) from a selected lot (Gibco, Lot No.: 1149239) at 37° C. in humid air with 5% CO2. After a series of continuously cultures, the non-adhesive cells were removed by medium change. Porcine mixed mesenchymal stem cells (MSCs) thus obtained may be used directly in the differentiation experiment of example 1.3 and can be successfully propagated for at least 2 months. […]

[1] = background statement; cited from earlier work
[2] = tested on: embryonic stem cells (ESCs); settings: ascorbic acid 0.01 mM; other antioxidants compared; Takahashi et al 2003; cited from earlier work
[3] = tested on: single BMSCs clones (fast-growing and slow-growing) and mixed MSCs; assay: Cardiogenic potential of mixed MSCs and single BMSCs clones under ascorbic acid; assay type: cell-based, porcine; settings: 4 weeks
Experimental: The porcine mixed MSCs of example 1.1 were collected from upper and interface layers, and then seeded at limited dilution into culture. Briefly, 1×10^4 mononucleated cells were plated in each well of a 96-multiwell plate, washed with HBSS (Gibco) twice, and then cultured in αMEM (Hyclone) containing 20% FBS from selected lots at 37° C. in humid air with 5% CO2. Non-adhesive cells were removed by medium change and the number of the remaining cells attached to the bottom of culture wells was examined under the microscope. Clones from wells containing only a single cell attached were chosen for further study. The isolated cells were further cultured for 3 passages, and then frozen in liquid nitrogen until the differentiation studies.
For selecting the fast-growing single BMSCs clones, the nucleated cells were seeded onto 1,000 wells following limited dilution in culture (10^4 cells/well), and 120 clones, each of which was derived from a single attached cell in the well, were obtained. Morphologically, all of the clones comprised a relatively homogeneous population of fibroblast-like cells at subconfluence, while at confluence the cells appeared more polygonal and formed a tight packed monolayer.
To examine the cardiogenic potential of single BMSCs clones, mixed MSCs of example 1.1 and isolated single BMSCs clones of example 1.2 (both fast-growing clones of clones 1-4 and slow-growing clones of clones 5-8) were cultured in the presence of 1 mM ascorbic acid for 4 weeks, and one representative result was illustrated in FIG. 3. Before ascorbic acid treatment, there were no differences in terms of morphology among mixed population of MSCs (FIG. 3A), fast-growing clone No. 1 (FIG. 3B) and slow-growing clone No. 8 (FIG. 3C), respectively.

differentiated MSCs = assay: Myotube formation detected by immunohistochemistry (phallacidin / propidium iodide staining); assay type: cell-based, porcine; settings: differentiated MSCs after ascorbic acid induction, confocal microscopy
Experimental: To further verify the myotube formation by ascorbic acid induction, the differentiated MSCs were stained with fluorescent phallacidin, which binds to F-actin, to reveal the formed myofibrils under phase contrast microscope (FIG. 4A) and fluorescence microscope (FIGS. 4B, 4C, and 4D), respectively. Briefly, the differentiated MSCs were washed three times with PBS for 3 minutes and the cells were then fixed with 4% paraformaldehyde for 15 min, and normalized with 0.1M glycine for 5 min, and permeabilized with 0.1% Tween 20 for 1 min. The myotube formation was confirmed by treating with alexa flour 488-conjugate phallacidin (Molecular Probes) for 20 min at room temperature. The cells were then washed two or more times with PBS. The multi-nucleate myotubes were stained by propidium iodide (Sigma) for 5 min at room temperature. After washing, they were mounted and observed under confocal laser scanning microscopy, and the multinucleated myotubes, which are one of the characteristics of fused myogenic cells, were detectable by propidium iodide staining (FIGS. 4B, 4C, and 4D).

[4] = tested on: myogenic associated genes in MSCs; assay: RT-PCR of myogenic associated genes; assay type: cell-based, porcine
Experimental: (§1) The effect of ascorbic acid on the expression of myogenic associated genes and proteins were examined by Reverse-transcription polymerase chain reaction (RT-PCR) (FIG. 5) and western blot (FIG. 6), respectively.
RT-PCR Total RNA was extracted from differentiated MSCs using a RNA mini Kit (e.g., QIAGEN). Subsequently, cDNA was synthesized from 1 μg of extracted total RNA using a ThermoScript RT-PCR kit (Invitrogen). The PCR reaction was carried out with Taq DNA polymerase (Invitrogen). Reverse-transcription polymerase chain reaction (RT-PCR) of myogenic associated genes, including actin, alpha 1, skeletal muscle (ACTA), actin, alpha, cardiac muscle (ACTC) (Kubalak et al., (1994) J. Biol. Chem. 269(24), 16961-16970), mef-2c, mef-2d (Skerjanc et al., (1998) J. Biol. Chem. 273(52), 34904-34910), myogenin (Wright et al., (1989) Cell 56(4), 607-617), nkx2.5 (Lints et al., (1993) […]) and tef-1 (Chen et al., (1994) Genes Dev 8(19), 2293-2301), were performed on the differentiated cell samples (Table 1). The relative expression level of glyceraldehyde 3-phosphate dehydrogenase (GAPDH) was used as an internal control for each sample, and porcine heart and skeletal muscle cells were used as a positive control of differentiation pathway. A spectrophotometer (Amersham Bioscience) and Agilent 2100 Bioanalyzer (Agilent Technologies) were used to measure the total RNA of concentration and integrity, respectively. Results were illustrated in FIG. 5.

[5] = tested on: cardiac troponin I in fast growing BMSC clones; assay: Western blot of cardiac troponin I and connexin43; assay type: cell-based, porcine; settings: fast growing BMSC clone No. 1 treated with ascorbic acid
Experimental: as §1
Western Blot Total protein from the differentiated MSCs were extracted with cell lysis buffer (Pierce) containing 1× protease inhibitor cocktail (Roche). Protein concentration was determined by a Bio-Rad protein assay kit. Samples were boiled for 5 minutes and then subjected to 12.5% polyacrylamide gel electrophoresis. Proteins in gel were electrophoretically transferred to polyvinylidene diflouride membrane (PVDF, Millipore) at 4° C. for overnight in 25 mM Tris, 190 mM glycine (pH 8.3) containing 0.01% SDS and 10% methanol. The membrane was blocked with 5% non-fat milk to prevent nonspecific binding and then incubated with one of […] primary antibodies. Subsequently, the membrane was stained with primary antibodies that were against cardiac troponin I (at a dilution of 1:1000) and connexin43 (at a dilution of 1:2000) (Chemicon) (Makino et al., (1999) J. Clin. Invest. 103(5), 697-705), respectively, for 1 hour at room temperature. […] Bound antibodies were recognized by horseradish peroxidase-conjugated goat anti-mouse IgG and ECL reagent (Pierce), and detected by chemiluminescent detection.

[6] = MSCs after ascorbic acid treatment
[7] = over the course of differentiation

Molecule: Nc1ncn([C@@H]2O[C@H](CO)[C@@H](O)[C@H]2O)c(=O)n1 [5-azacytidine]
- differentiation rate (formation of myotubes) (porcine mixed MSCs): about 10%
- cytotoxicity [1]: cytotoxic

Molecule: CC(=O)N[C@@H](CS)C(=O)O [N-acetylcysteine]
- induction of differentiation of ESCs into cardiomyocytes [2]: not mimicked

Molecule: O=S(=O)(O)c1cc(O)c(O)c(S(=O)(=O)O)c1 [Tiron]
- induction of differentiation of ESCs into cardiomyocytes [2]: not mimicked

Molecule: O=C1O[C@H]([C@@H](O)CO)C(O)=C1O [ascorbic acid]
- differentiation rate (formation of myotubes) (porcine mixed MSCs): ~25%
- morphology after ascorbic acid treatment ([3]; fast-growing clone No. 1, 1 mM ascorbic acid): started to form myotube-like structures from the third week
- morphology after ascorbic acid treatment ([3]; mixed MSCs, 1 mM ascorbic acid): started to form myotube-like structures from the third week
- morphology after ascorbic acid treatment ([3]; slow-growing clone No. 8, 1 mM ascorbic acid): retained a fibroblast-like morphology after 4 weeks
- multinucleated myotubes by propidium iodide staining (differentiated MSCs): detectable
- expression of ACTA gene [4, 6]: increased significantly
- expression of mef-2d gene [4, 6]: increased significantly
- expression of myogenin gene [4, 6]: increased significantly
- expression of ACTC gene [4, 7]: no significant change
- expression of mef-2c gene [4, 7]: no significant change
- expression of nkx2.5 gene [4, 7]: no significant change
- expression of cardiac troponin I protein [5]: expression of a heart specific protein, i.e., cardiac troponin 1
- induction of differentiation of ESCs into cardiomyocytes [2]: induction of differentiation of ESCs into cardiomyocytes

Molecule: vitamin E
- induction of differentiation of ESCs into cardiomyocytes [2]: not mimicked
